Test results reported in patent US7417156B2, “Orally active, antimalarial, anticancer, artemisinin-derived trioxane dimers” (Johns Hopkins University, priority 2002, dated 2008).
Where two headings read alike, the source gives them in different places.

How the values were obtained:
[1] = tested on: OVCAR-3; assay: NCI 60 cell line panel screen (SRB); assay type: cell-based, human
[2] = tested on: NCI/ADR-RES; assay: NCI 60 cell line panel screen (SRB); assay type: cell-based, human
[3] = tested on: HCT-116; assay: NCI 60 cell line panel screen (SRB); assay type: cell-based, human
[4] = tested on: 786-0; assay: NCI 60 cell line panel screen (SRB); assay type: cell-based, human
[5] = tested on: EKVX; assay: NCI 60 cell line panel screen (SRB); assay type: cell-based, human
[6] = tested on: HL-60(TB); assay: NCI 60 cell line panel screen (SRB); assay type: cell-based, human
[7] = tested on: A549/ATCC; assay: NCI 60 cell line panel screen (SRB); assay type: cell-based, human
[8] = tested on: NCI-H322M; assay type: cell-based
[9] = tested on: MCF7; assay: NCI 60 cell line panel screen (SRB); assay type: cell-based, human
[10] = tested on: HT29; assay: NCI 60 cell line panel screen (SRB); assay type: cell-based, human
[11] = tested on: SF-539; assay: NCI 60 cell line panel screen (SRB); assay type: cell-based, human
[12] = tested on: UO-31; assay: NCI 60 cell line panel screen (SRB); assay type: cell-based, human
[13] = tested on: HCT-15; assay: NCI 60 cell line panel screen (SRB); assay type: cell-based, human
[14] = tested on: MALME-3M; assay: NCI 60 cell line panel screen (SRB); assay type: cell-based, human
[15] = tested on: COLO 205; assay: NCI 60 cell line panel screen (SRB); assay type: cell-based, human
[16] = tested on: SNB-19; assay: NCI 60 cell line panel screen (SRB); assay type: cell-based, human
[17] = tested on: IGROVI; assay: NCI 60 cell line panel screen (SRB); assay type: cell-based, human
[18] = tested on: NCI-H460; assay: NCI 60 cell line panel screen (SRB); assay type: cell-based, human
[19] = tested on: NCI-H522; assay: NCI 60 cell line panel screen (SRB); assay type: cell-based, human
[20] = tested on: 60 cell line panel; assay type: cell-based
[21] = tested on: T-47D; assay: NCI 60 cell line panel screen (SRB); assay type: cell-based, human; conditions: T-47D (Breast Cancer)
[22] = tested on: chloroquine-sensitive P. falciparum (NF54); assay: Antimalarial activity in vitro, [3H]hypoxanthine incorporation; assay type: cell-based
[23] = tested on: TK-10; assay: NCI 60 cell line panel screen (SRB); assay type: cell-based, human
[24] = mean value over the 60 cell line panel

## CC1CCC2C(C)C(CC(CO)CC3OC4OC5(C)CCC6C(C)CCC(C3C)C46OO5)OC3OC4(C)CCC1C32OO4 (stereo not drawn) [Compound 4, bis-trioxane primary alcohol]
[1]; OVCAR-3 (Ovarian Cancer), LC50: PG=−50
  Log10LC50: −4.42 log10M
[1]; OVCAR-3 (Ovarian Cancer), TGI: PG=0
  Log10TGI50: −4.92 log10M
[1]; Ovarian Cancer, OVCAR-3
  Log10GI50: −7.68
[2]; Breast Cancer, NCI/ADR-RES
  Log10GI50: −7.45
[2]; NCI/ADR-RES (Breast Cancer), LC50: PG=−50
  Log10LC50: −4.52 log10M
[2]; NCI/ADR-RES (Breast Cancer), TGI: PG=0
  Log10TGI50: −6.41 log10M
[3]; Colon Cancer, HCT-116
  Log10GI50: <−8.00
[3]; HCT-116 (Colon Cancer), LC50: PG=−50
  Log10LC50: −4.57 log10M
[4]; 786-0 (Renal Cancer), LC50: PG=−50
  Log10LC50: −4.31 log10M
[4]; 786-0 (Renal Cancer), TGI: PG=0
  Log10TGI50: −4.83 log10M
[4]; Renal Cancer, 786-0
  Log10GI50: −7.48
[5]; EKVX (Non-Small Cell Lung Cancer), LC50: PG=−50
  Log10LC50: −4.36 log10M
[5]; EKVX (Non-Small Cell Lung Cancer), TGI: PG=0
  Log10TGI50: −4.77 log10M
[5]; Non-Small Cell Lung Cancer, EKVX
  Log10GI50: −7.12
[6]; HL-60(TB) (Leukemia), LC50: PG=−50
  Log10LC50: −4.13 log10M
[6]; HL-60(TB) (Leukemia), TGI: PG=0
  Log10TGI50: −4.88 log10M
[6]; Leukemia, HL-60(TB)
  Log10GI50: −7.78
[7]; A549/ATCC (Non-Small Cell Lung Cancer), LC50: PG=−50
  Log10LC50: −4.11 log10M
[7]; A549/ATCC (Non-Small Cell Lung Cancer), TGI: PG=0
  Log10TGI50: −4.71 log10M
[7]; Non-Small Cell Lung Cancer, A549/ATCC
  Log10GI50: −7.29
[8]; NCI-H322M (Non-Small Cell Lung Cancer), LC50: PG=−50
  Log10LC50: −4.29 log10M
[8]; NCI-H322M (Non-Small Cell Lung Cancer), TGI: PG=0
  Log10TGI50: −4.63 log10M
[8]; Non-Small Cell Lung Cancer, NCI-H322M
  Log10GI50: −4.97
[9]; Breast Cancer, MCF7
  Log10GI50: −7.22
[9]; MCF7 (Breast Cancer), LC50: PG=−50
  Log10LC50: −4.03 log10M
[9]; MCF7 (Breast Cancer), TGI: PG=0
  Log10TGI50: −4.67 log10M
[10]; Colon Cancer, HT29
  Log10GI50: −7.75
[10]; HT29 (Colon Cancer), LC50: PG=−50
  Log10LC50: >−4.00 log10M
[10]; HT29 (Colon Cancer), TGI: PG=0
  Log10TGI50: −4.67 log10M
[11]; CNS Cancer, SF-539
  Log10GI50: −7.05
[11]; SF-539 (CNS Cancer), LC50: PG=−50
  Log10LC50: −4.34 log10M
[11]; SF-539 (CNS Cancer), TGI: PG=0
  Log10TGI50: −4.72 log10M
[12]; Renal Cancer, UO-31
  Log10GI50: −7.46
[12]; UO-31 (Renal Cancer), LC50: PG=−50
  Log10LC50: −5.14 log10M
[12]; UO-31 (Renal Cancer), TGI: PG=0
  Log10TGI50: −5.77 log10M
[13]; Colon Cancer, HCT-15
  Log10GI50: <−8.00
[13]; HCT-15 (Colon Cancer), LC50: PG=−50
  Log10LC50: −4.06 log10M
[13]; HCT-15 (Colon Cancer), TGI: PG=0
  Log10TGI50: −4.78 log10M
[14]; MALME-3M (Melanoma), LC50: PG=−50
  Log10LC50: −4.28 log10M
[14]; MALME-3M (Melanoma), TGI: PG=0
  Log10TGI50: −4.74 log10M
[14]; Melanoma, MALME-3M
  Log10GI50: −7.31
[15]; COLO 205 (Colon Cancer), LC50: PG=−50
  Log10LC50: −4.50 log10M
[15]; COLO 205 (Colon Cancer), TGI: PG=0
  Log10TGI50: −6.43 log10M
[15]; Colon Cancer, COLO 205
  Log10GI50: <−8.00
[16]; CNS Cancer, SNB-19
  Log10GI50: −4.88
[16]; SNB-19 (CNS Cancer), LC50: PG=−50
  Log10LC50: −4.13 log10M
[16]; SNB-19 (CNS Cancer), TGI: PG=0
  Log10TGI50: −4.50 log10M
[17]; IGROVI (Ovarian Cancer), LC50: PG=−50
  Log10LC50: −4.32 log10M
[17]; IGROVI (Ovarian Cancer), TGI: PG=0
  Log10TGI50: −4.68 log10M
[17]; Ovarian Cancer, IGROVI
  Log10GI50: −5.36
[18]; NCI-H460 (Non-Small Cell Lung Cancer), LC50: PG=−50
  Log10LC50: −4.19 log10M
[18]; NCI-H460 (Non-Small Cell Lung Cancer), TGI: PG=0
  Log10TGI50: −4.71 log10M
[18]; Non-Small Cell Lung Cancer, NCI-H460
  Log10GI50: −7.35
[19]; NCI-H522 (Non-Small Cell Lung Cancer), TGI: PG=0
  Log10TGI50: −4.88 log10M
[19]; NCI-H-522 (Non-Small Cell Lung Cancer), LC50: PG=−50
  Log10LC50: −4.40 log10M
[19]; Non-Small Cell Lung Cancer, NCI-H522
  Log10GI50: −7.53
[20]
  Log10GI50 Delta: 1.13
  Log10GI50 Range: 3.20
[20]; 60 cell line panel
  Log10LC50 Delta: 0.88
  Log10LC50 Range: 1.14
  Log10TGI50 Delta: 2.31
  Log10TGI50 Range: 3.18
[20]; human cancer cell lines in general
  growth inhibition and cytotoxicity in words: strongly inhibitory but not cytotoxic
[20]; leukemia cell line RPM 1-8226, melanoma cell line SK-MEL-5, renal cancer cell line ACHN
  growth inhibition in words: selectively and strongly inhibitory
[20]; mean over panel
  Log10GI50 MG MID: −6.87
[20]; [24]
  Log10LC50 MG MID: −4.26 log10M
  Log10TGI50 MG MID: −4.87 log10M
[21]; LC50: PG=−50
  Log10LC50: −4.17 log10M
[21]; TGI: PG=0
  Log10TGI50: −4.73 log10M
[22]
  IC50: below one nM
  antimalarial potency in vitro relative to artemisinin: 10 times
[22]; Table I, NF54 strain, read-out: IC50
  IC50: 0.87 nM
[23]; Renal Cancer, TK-10
  Log10GI50: −6.60
[23]; TK-10 (Renal Cancer), LC50: PG=−50
  Log10LC50: −4.38 log10M
[23]; TK-10 (Renal Cancer), TGI: PG=0
  Log10TGI50: −4.81 log10M
